One test has as its system coccidiosis. Particulars: EP application 169011; cited from earlier work.
For a further test, the system named is Actinomyces pyogenes. Put plainly: In vitro minimal inhibitory concentration (MIC), Actinomyces pyogenes. The format is cell-based. Particulars: 24 hours.
The subject of the next test is Treponema hyodysenteriae. Description: In vitro minimal inhibitory concentration (MIC), Treponema hyodysenteriae. The format is cell-based.
A further test concerns Eimeria tenella. Put plainly: Efficacy against coccidial infection in chickens, Eimeria tenella (lesion scores 0 to 4). The conditions noted are these: in diet at levels of 15 to 120 ppm.
The next test deals with E. necatrix. Description: Efficacy against coccidial infection in chickens, E. necatrix (lesion scores 0 to 3). Particulars: in diet at levels of 15 to 120 ppm.
Test [1] relates to coccidial infections in poultry. Description: Activity against coccidial infections in poultry (lesion scores).
In the next test the test system is E. acervulina. Description: Efficacy against coccidial infection in chickens, E. acervulina (lesion scores 0 to 3). The conditions noted are these: in diet at levels of 15 to 120 ppm, evaluated after five days.
Another test has as its system Clostridium perfringens. Put plainly: microbe, parasite or virus in culture. The conditions noted are these: 24 h. Type of test: cell-based.
Test [2] has as its system Gram-positive microorganisms. Description: Inhibitory action against growth of Gram-positive microorganisms in vitro. Type of test: cell-based. The procedure: In Table I, below, the results of in vitro tests are summarized. For this test each organism is inoculated in a series of test tubes containing nutrient medium and varying concentrations of Antibiotic UK-61,689 to determine the minimal concentration of the compound in g/ml which inhibits the growth of the organism over a period of 24 hours (MIC).

The test system of another test is E. maxima. Description: Efficacy against coccidial infection in chickens, E. maxima (lesion scores 0 to 3). Particulars: in diet at levels of 15 to 120 ppm.
A further test has as its system E. brunetti. Put plainly: Efficacy against coccidial infection in chickens, E. brunetti (lesion scores 0 to 3). Particulars: in diet at levels of 15 to 120 ppm.

SMILES strings stand for the structures. Converted amounts (≈) assume the structure as drawn. Like-named read-outs stand apart in the source and are kept apart here.

For `COC1CCC(OC2CC(C3OC(C)(OC)C(C)CC3C)OC2C2(C)CCC(C3(C)CCC4(CC(O)C(C)C(C(C)C5OC(O)(CC(=O)O)C(C)C(OC6CCC(OC)C(C)O6)C5OC)O4)O3)O2)OC1C` (stereo not shown) [CP-70,228], in the test with coccidiosis, the “antibiotic / anticoccidial effectiveness” value is given as “antibiotically effective in controlling coccidiosis”.
Take `COC1CCC(OC2CC(C3OC(C)(OC)C(C)CC3C)OC2C2(C)CCC(C3(C)CCC4(CC(OC)C(C)C(C(C)C5OC(O)(CC(=O)O)C(C)C(OC6CCC(OC)C(C)O6)C5OC)O4)O3)O2)OC1C` (stereo not shown) [CP-70,828]: the “antibiotic / anticoccidial effectiveness” value in the test on coccidiosis is reported as “antibiotically effective in controlling coccidiosis”.
For the compound `COC1CCC(OC2CC(C3OC(C)(O)C(C)CC3C)OC2C2(C)CCC(C3(C)CCC4(CC(O)C(C)C(C(C)C5OC(O)(CC(=O)O)C(C)C(OC6CCC(OC)C(C)O6)C5OC)O4)O3)O2)OC1C` (stereo not shown) [UK-58,852], the “antibiotic / anticoccidial effectiveness” value in the test with coccidiosis was “effective antibiotic, especially anticoccidial agent”.
Turning to `COC1CCC(OC2CC(C3OC(C)(O)C(C)CC3C)OC2C2(C)CCC(C3(C)CCC4(CC(O)C(C)C(C(C)C5OC(O)(CC(=O)O)C(C)C(O)C5OC)O4)O3)O2)OC1C` (stereo not shown) [UK-61,689], the MIC against Actinomyces pyogenes (Actinomyces pyogenes strain 14D008) was 50 µg/mL (≈ 57.3 µM); in the test with Actinomyces pyogenes (Actinomyces pyogenes strain 14D011), 50 µg/mL (≈ 57.3 µM); in the test with Actinomyces pyogenes (Trueperella pyogenes, Actinomyces pyogenes strain 14D002, read-out: MIC) it was 50 µg/mL (≈ 57.3 µM); against Treponema hyodysenteriae (Brachyspira hyodysenteriae, 24 h, Treponema hyodysenteriae strain 94A001), 3.12 µg/mL (≈ 3.57 µM); in the test with Treponema hyodysenteriae (Brachyspira hyodysenteriae, 24 h, Treponema hyodysenteriae strain 94A002), 3.12 µg/mL (≈ 3.57 µM); in the test with Treponema hyodysenteriae (Brachyspira hyodysenteriae, Treponema hyodysenteriae strain 94A007, 24 hours, read-out: MIC) it was 1.56 µg/mL (≈ 1.79 µM). The MIC against Treponema hyodysenteriae (Treponema hyodysenteriae strain 94A008, 24 hours) is 1.56 µg/mL (≈ 1.79 µM); against Clostridium perfringens (Clostridium perfringens strain 10A006), 50 µg/mL (≈ 57.3 µM); in the test on Clostridium perfringens (Clostridium perfringens strain 10A009), 12.5 µg/mL (≈ 14.3 µM). The “controlling infections due to Eimeria tenella” value with Eimeria tenella is “effective in controlling infections”. In addition, the “controlling infections due to E. necatrix” value in the test on E. necatrix is recorded as “effective in controlling infections”. The “activity against coccidial infections in poultry” value in test [1] was “excellent activity”. Moreover, in the test with E. acervulina, the “controlling infections due to E. acervulina” value is on record as “effective in controlling infections”. Besides, the “inhibitory action against the growth of Gram-positive microorganisms” value in [2] is given as “exhibits inhibitory action against the growth of a number of Gram-positive microorganisms”. For the same compound, in the test with E. maxima, the “controlling infections due to E. maxima” value is on record as “effective in controlling infections”. Moreover, the “controlling infections due to E. brunetti” value in the test with E. brunetti was “effective in controlling infections”.

These data come from patent US5693524A, “Anticoccidial composition of UK-61 689 and Actinomadura mycelium” (Pfizer Inc., priority 1995, dated 1997).
